One assay concerns S. aureus FDA-209-p. Put plainly: Antimicrobial activity test: MIC by the agar plate dilution method, S. aureus FDA-209-p. The format is cell-based, Staphylococcus aureus. The conditions noted are these: inoculum 1×10^6 cells/ml. On the procedure: (§1) In order to investigate the in vitro activity of the under-mentioned compounds against various bacteria, the minimal inhibitory concentration (MIC) values were determined by the agar plate dilution method [see Chemotherapy, 22, 1126-1128 (1974)].
(§2) Each test inoculum was adjusted to 1×10^6 cells/ml (O.D., 600 mμ: 0.07-0.16).

Another assay concerns E. coli NIHJ. Put plainly: Antimicrobial activity test: MIC by the agar plate dilution method, E. coli NIHJ. The format is cell-based. The conditions noted are these: inoculum 1×10^6 cells/ml. The procedure: as §1, §2
A further assay concerns E. coli No. 29. In words: Antimicrobial activity test: MIC by the agar plate dilution method, E. coli No. 29. It counts as cell-based. A digest of the protocol: (§3)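 In vitro susceptibility by plate dilution in agar; each organism inoculated at 1×10^6 cells/ml, turbidity 0.07-0.16 at 600 mμ.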
Another assay has as its system K. pneumoniae NCTC-9632. In words: Antimicrobial activity test: MIC by the agar plate dilution method, K. pneumoniae NCTC-9632. The format is cell-based. The conditions noted are these: inoculum 1×10^6 cells/ml. A digest of the protocol:
as §3

For the next assay, the system named is P. mirabilis 1287. In words: Antimicrobial activity test: MIC by the agar plate dilution method, P. mirabilis 1287. The format is cell-based. The conditions noted are these: P. mirabilis 1287; inoculum 1×10^6 cells/ml. In outline: as §3
The next assay deals with M. morganii ATCC-25830. Put plainly: Antimicrobial activity test: MIC by the agar plate dilution method, M. morganii ATCC-25830. Particulars: inoculum 1×10^6 cells/ml. It counts as cell-based. In outline: as §3
The next assay deals with S. marcescens IFO-12648. Put plainly: Antimicrobial activity test: MIC by the agar plate dilution method, S. marcescens IFO-12648. It counts as cell-based. In outline: as §3
The test system of a further assay is P. aeruginosa NCTC-10490. Put plainly: Antimicrobial activity test: MIC by the agar plate dilution method, P. aeruginosa NCTC-10490. The format is cell-based. Particulars: inoculum 1×10^6 cells/ml. A digest of the protocol: as §3
[1] abbreviates: E. coli No. 29, inoculum 1×10^6 cells/ml.
The mark [2] stands for this setting: S. marcescens IFO-12648, inoculum 1×10^6 cells/ml.

Where two headings read alike, the source gives them in different places.

Consider “7-[2-(2-Aminothiazol-4-yl)-2-allyloxyiminoacetamido]-3-[(1,3,4-thiadiazol- 2-yl)thiomethyl]- Δ^3 -O-2-isocephem-4-carboxylic acid (syn-isomer) [No. 3]”, for which the MIC is 0.78 µg/mL with S. aureus FDA-209-p; not above 0.025 µg/mL in the assay with E. coli NIHJ; not above 0.025 µg/mL with E. coli No. 29 (setting [1]); 0.1 µg/mL with K. pneumoniae NCTC-9632; not above 0.025 µg/mL against P. mirabilis 1287; not above 0.025 µg/mL in the assay on M. morganii ATCC-25830. The MIC in the assay on S. marcescens IFO-12648 (setting [2]) came out at 0.2 µg/mL; in the assay on P. aeruginosa NCTC-10490 it was 12.5 µg/mL.
For “7-[2-(2-Aminothiazol-4-yl)-2-benzyloxyiminoacetamido]-3-[(1,3,4-thiadiazol-2-yl)thiomethyl]-Δ^3 -O-2-isocephem-4-carboxylic acid trifluoroacetate (syn-isomer) [No. 13]”, the MIC was 0.1 µg/mL with S. aureus FDA-209-p; not above 0.025 µg/mL in the assay on E. coli NIHJ; not above 0.025 µg/mL against E. coli No. 29 (setting [1]); not above 0.025 µg/mL in the assay with K. pneumoniae NCTC-9632; not above 0.025 µg/mL with P. mirabilis 1287; not above 0.025 µg/mL in the assay on M. morganii ATCC-25830. Further, the minimal inhibitory concentration (MIC) against S. marcescens IFO-12648 (setting [2]) worked out at 0.1 µg/mL; with P. aeruginosa NCTC-10490 it was 1.56 µg/mL.
For “7-[2-(2-Aminothiazol-4-yl)-2-cyanomethyloxyiminoacetamido]-3-[(1,2,3-thiadiazol-5-yl)thiomethyl]-Δ^3 -O-2-isocephem-4-carboxylic acid trifluoroacetate (syn-isomer) [Example 55]”, the MIC in the assay on S. aureus FDA-209-p is 0.2 µg/mL; in the assay on E. coli NIHJ, not above 0.025 µg/mL; with E. coli No. 29 (setting [1]), not above 0.025 µg/mL; in the assay on K. pneumoniae NCTC-9632, not above 0.025 µg/mL; in the assay on P. mirabilis 1287, not above 0.025 µg/mL; in the assay with M. morganii ATCC-25830 it was not above 0.025 µg/mL. Moreover, the results for the MIC against S. marcescens IFO-12648 (setting [2]) and in the assay with P. aeruginosa NCTC-10490 were 0.1 µg/mL and 1.56 µg/mL, respectively.
For the substance “7-[2-(2-Aminothiazol-4-yl)-2-cyanomethyloxyiminoacetamido]-3-[(1,3,4-thiadiazol-2-yl)thiomethyl]-Δ^3 -O-2-isocephem-4-carboxylic acid trifluoroacetate (syn-isomer) [No. 11]”, the MIC against S. aureus FDA-209-p was 0.78 µg/mL; with E. coli NIHJ it was 0.39 µg/mL; in the assay with E. coli No. 29 (setting [1]), 0.2 µg/mL; with K. pneumoniae NCTC-9632, 0.39 µg/mL; in the assay with P. mirabilis 1287, 0.05 µg/mL; in the assay with M. morganii ATCC-25830, 0.1 µg/mL. The MIC against S. marcescens IFO-12648 (setting [2]) and against P. aeruginosa NCTC-10490 was 1.56 µg/mL throughout.
Consider “7-[2-(2-Aminothiazol-4-yl)-2-cyclopropvlmethyloxyiminoacetamido]-3-[(1,2,3- thiadiazol-5-yl)thiomethyl]-Δ^3 -O-2-isocephem-4-carboxylic acid (syn-isomer) [Example 57]”, for which the MIC is 0.1 µg/mL in the assay on S. aureus FDA-209-p; 0.2 µg/mL in the assay with E. coli NIHJ; 0.1 µg/mL against E. coli No. 29 (setting [1]); 0.39 µg/mL with K. pneumoniae NCTC-9632; 0.1 µg/mL in the assay on P. mirabilis 1287; 0.05 µg/mL with M. morganii ATCC-25830. In addition, the MIC against S. marcescens IFO-12648 and with P. aeruginosa NCTC-10490 was 0.78 µg/mL throughout.
As to “7-[2-(2-Aminothiazol-4-yl)-2-cyclopropylmethyloxyiminoacetamido]-3-[(1,3,4-thiadiazol-2-yl)thiomethyl]-Δ^3 -O-2-isocephem-4-carboxylic acid trifluoroacetate (syn-isomer) [No. 10]”, the MIC against S. aureus FDA-209-p is 0.05 µg/mL; in the assay with E. coli NIHJ it was not above 0.025 µg/mL; against E. coli No. 29 (setting [1]), 0.05 µg/mL; in the assay on K. pneumoniae NCTC-9632, 0.05 µg/mL; against P. mirabilis 1287, not above 0.025 µg/mL; in the assay on M. morganii ATCC-25830 it was not above 0.025 µg/mL. Further, the MIC in the assay on S. marcescens IFO-12648 (setting [2]) came out at 0.05 µg/mL; with P. aeruginosa NCTC-10490, 3.13 µg/mL.
Regarding “7-[2-(2-Aminothiazol-4-yl)-2-ethoxyiminoacetamido]-3-[(1,3,4-thiadiazol-2-yl)thiomethyl]-Δ^3 -O-2-isocephem-4-carboxylic acid (syn-isomer) [Example 29]”, the MIC is 0.05 µg/mL with S. aureus FDA-209-p; not above 0.025 µg/mL against E. coli NIHJ; not above 0.025 µg/mL in the assay with E. coli No. 29 (setting [1]); 0.05 µg/mL in the assay on K. pneumoniae NCTC-9632; not above 0.025 µg/mL against P. mirabilis 1287; not above 0.025 µg/mL with M. morganii ATCC-25830. The MIC is 0.2 µg/mL in the assay with S. marcescens IFO-12648 (setting [2]) and 6.25 µg/mL in the assay with P. aeruginosa NCTC-10490.
As for “7-[2-(2-Aminothiazol-4-yl)-2-methoxyiminoacetamido]-3-[(1,2,3-thiadiazol-5-yl)thiomethyl]-Δ^3 -O-2-isocephem-4-carboxylic acid trifluoroacetate (syn-isomer) [No. 14]”, the MIC is 0.1 µg/mL in the assay on S. aureus FDA-209-p; not above 0.025 µg/mL in the assay on E. coli NIHJ; not above 0.025 µg/mL in the assay on E. coli No. 29 (setting [1]); not above 0.025 µg/mL with K. pneumoniae NCTC-9632; not above 0.025 µg/mL in the assay with P. mirabilis 1287; not above 0.025 µg/mL with M. morganii ATCC-25830. Further, the results for the MIC against S. marcescens IFO-12648 (setting [2]) and with P. aeruginosa NCTC-10490 were 0.1 µg/mL and 1.56 µg/mL, respectively.
Take “7-[2-(2-Aminothiazol-4-yl)-2-methoxyiminoacetamido]-3-[(1,3,4-thiadiazol-2-yl)thiomethyl]- Δ^33 -O-2-isocephem-4-carboxylic acid (syn-isomer) [No. 2]”: the MIC in the assay on S. aureus FDA-209-p was found to be 1.56 µg/mL; with E. coli NIHJ, 0.39 µg/mL; against E. coli No. 29, 0.78 µg/mL; with K. pneumoniae NCTC-9632, 0.78 µg/mL; in the assay with P. mirabilis 1287, 0.1 µg/mL; with M. morganii ATCC-25830 it was 0.2 µg/mL. The minimal inhibitory concentration (MIC) against S. marcescens IFO-12648 turned out to be 0.78 µg/mL; in the assay with P. aeruginosa NCTC-10490 it was 3.13 µg/mL.
For the substance “7-[2-(2-Aminothiazol-4-yl)-2-methoxyiminoacetamido]-3-[(1,4,5,6-tetrahydro-4-methyl-5,6-dioxo-1,2,4-triazin-3-yl)thiomethyl]-Δ^3 -O-2-isocephem-4-carboxylic acid (syn-isomer) [No. 4]”, the MIC is 0.78 µg/mL with S. aureus FDA-209-p; not above 0.025 µg/mL with E. coli NIHJ; not above 0.025 µg/mL against E. coli No. 29 (setting [1]); not above 0.025 µg/mL against K. pneumoniae NCTC-9632; not above 0.025 µg/mL in the assay on P. mirabilis 1287; not above 0.025 µg/mL in the assay with M. morganii ATCC-25830. Moreover, the MIC against S. marcescens IFO-12648 (setting [2]) came out at 0.2 µg/mL; with P. aeruginosa NCTC-10490, 50 µg/mL.
As to “7-[2-(2-Aminothiazol-4-yl)-2-methoxyiminoacetamido]-3-[(carbamoyloxy)methyl]-Δ^3 -O-2-isocephem-4-carboxylic acid (syn-isomer) [No. 1]”, the MIC with S. aureus FDA-209-p came out at 0.78 µg/mL; in the assay with E. coli NIHJ, 0.2 µg/mL; with E. coli No. 29, 0.39 µg/mL; against K. pneumoniae NCTC-9632, 0.39 µg/mL; against P. mirabilis 1287 it was 0.1 µg/mL; in the assay on M. morganii ATCC-25830, 0.1 µg/mL. For the same substance, the figures for the MIC in the assay on S. marcescens IFO-12648 and against P. aeruginosa NCTC-10490 were 0.78 µg/mL and 1.56 µg/mL, respectively.
With “7-[2-(2-Aminothiazol-4-yl)-2-methylthiomethoxyiminoacetamido]-3-[(1,3,4-thiadiazol-2-yl)thiomethyl]-Δ^3 -O-2-isocephem-4-carboxylic acid (syn-isomer) [No. 12]”, the MIC against S. aureus FDA-209-p is 0.2 µg/mL; in the assay with E. coli NIHJ it was not above 0.025 µg/mL; with E. coli No. 29 (setting [1]) it was not above 0.025 µg/mL; in the assay on K. pneumoniae NCTC-9632, 0.05 µg/mL; against P. mirabilis 1287, not above 0.025 µg/mL; against M. morganii ATCC-25830 it was not above 0.025 µg/mL. The MIC against S. marcescens IFO-12648 (setting [2]) stood at 0.1 µg/mL; against P. aeruginosa NCTC-10490, 3.13 µg/mL.
With “7-[2-(2-Aminothiazol-4-yl)-2-propargyloxyiminoacetamido]3-[(1,3,4-thiadiazol-2-yl)thiomethyl-66^3 -O-b 2-isocephem-4-carboxylic acid trifluoroacetate (syn-isomer) [No. 7]”, the MIC is not above 0.025 µg/mL in the assay with E. coli NIHJ; 0.1 µg/mL against E. coli No. 29 (setting [1]); 0.1 µg/mL in the assay on K. pneumoniae NCTC-9632; not above 0.025 µg/mL with P. mirabilis 1287; 0.05 µg/mL in the assay on M. morganii ATCC-25830; 0.2 µg/mL with S. marcescens IFO-12648 (setting [2]). In the assay with P. aeruginosa NCTC-10490, this substance returned an MIC of 0.78 µg/mL.
As to “7-[2-(2-Formamidothiazol-4-yl)-2-(2-chloroethoxy)iminoacetamido]-3-[(1,3,4- thiadiazol-2-yl)thiomethyl-]-Δ^3 -O-2-isocephem-4-carboxylic acid (syn-isomer) [Example 33]”, the MIC against E. coli NIHJ worked out at 0.1 µg/mL; against E. coli No. 29 (setting [1]), 0.2 µg/mL; against K. pneumoniae NCTC-9632 it was 0.1 µg/mL; in the assay with P. mirabilis 1287 it was 0.05 µg/mL; in the assay on M. morganii ATCC-25830 it was 0.2 µg/mL; with S. marcescens IFO-12648, 0.78 µg/mL. In the assay with P. aeruginosa NCTC-10490, this substance yielded an MIC of 1.56 µg/mL.
With “(6S,7S)-7-[2-(2-Aminothiazol-4-yl}-2methoxyiminoacetamido]-3-[(1,3,4-thiadiazol-2-yl)thiomethyl]-Δ^3 -O-2-isocephem-4-carboxylic acid trifluoroacetate (syn-isomer) [No. 15]”, the MIC against E. coli NIHJ is not above 0.025 µg/mL; in the assay on E. coli No. 29 (setting [1]) it was not above 0.025 µg/mL; in the assay with K. pneumoniae NCTC-9632, not above 0.025 µg/mL; against P. mirabilis 1287 it was not above 0.025 µg/mL; against M. morganii ATCC-25830, not above 0.025 µg/mL; with S. marcescens IFO-12648 (setting [2]) it was 0.2 µg/mL. Further, the MIC in the assay with P. aeruginosa NCTC-10490 worked out at 1.56 µg/mL.

The record behind these values is US4831026A, “2-oxa-isocephem compounds, compositions containing same and processes of using” (Otsuka Pharmaceutical Co., Ltd., priority 1985, dated 1989).
